This assay deals with M. catarrhalis A894. Briefly: MIC determination by microdilution in cation-adjusted Mueller-Hinton Broth (CLSI M7-A7). It is filed as cell-based. As to conditions: Moraxella catarrhalis, A894, microdilution method. As to the method: Minimal inhibitory concentrations (MICs, in mg/l) were determined in cation-adjusted Mueller-Hinton Broth by a microdilution method following the description given in “Methods for Dilution Antimicrobial Susceptibility Tests for Bacteria that Grow Aerobically”, Approved standard, 7th ed., Clinical and Laboratory Standards Institute (CLSI) Document M7-A7, Wayne, Pa., USA, 2006. All Example compounds were tested against several Gram-positive and Gram-negative bacteria.

For `O=C1CSc2ccc(N3C[C@@H](CNCC4Cn5c(=O)ccc6nccc(c65)O4)OC3=O)cc2N1` (mixture of isomers) [Example 1, 2-(RS)-({[(R)-2-oxo-3-(3-oxo-3,4-dihydro-2H-benzo[1,4]thiazin-6-yl)-oxazolidin-5-ylmethyl]-amino}-methyl)-2,3-dihydro-1-oxa-3a,7-diaza-phenalen-4-one], the minimal inhibitory concentration (MIC) (usually the lowest concentration that inhibits growth of the organism) is at most 0.063 mg/L. As for `O=C1COc2ccc(N3C[C@@H](CNCC4Cn5c(=O)ccc6nccc(c65)O4)OC3=O)cc2N1` (mixture of isomers) [Example 2, 2-(RS)-({[(R)-2-oxo-3-(3-oxo-3,4-dihydro-2H-benzo[1,4]oxazin-6-yl)-oxazolidin-5-ylmethyl]-amino}-methyl)-2,3-dihydro-1-oxa-3a,7-diaza-phenalen-4-one], the figure is 0.5 mg/L; as for `O=C1CSc2ccc(N3C[C@@H](CNCC4Cc5c(F)ccc6ccc(=O)n(c56)C4)OC3=O)cc2N1` (mixture of isomers) [Example 3, (6RS)-8-fluoro-6-({[(R)-2-oxo-3-(3-oxo-3,4-dihydro-2H-benzo[1,4]thiazin-6-yl)-oxazolidin-5-ylmethyl]-amino}-methyl)-6,7-dihydro-5H-pyrido[3,2,1-ij]quinolin-3-one], at most 0.063 mg/L; as for `O=C1COc2ccc(N3C[C@@H](CNCC4Cc5c(F)ccc6ccc(=O)n(c56)C4)OC3=O)cc2N1` (mixture of isomers) [Example 4, (6RS)-8-fluoro-6-({[(R)-2-oxo-3-(3-oxo-3,4-dihydro-2H-benzo[1,4]oxazin-6-yl)-oxazolidin-5-ylmethyl]-amino}-methyl)-6,7-dihydro-5H-pyrido[3,2,1-ij]quinolin-3-one], at most 0.063 mg/L.

As to `O=C1O[C@H](CNCC2Cc3c(F)ccc4ccc(=O)n(c34)C2)CN1c1ccc2c(c1)OCCO2` (mixture of isomers) [Example 5, (6RS)-6-({[(R)-3-(2,3-dihydro-benzo[1,4]dioxin-6-yl)-2-oxo-oxazolidin-5-ylmethyl]-amino}-methyl)-8-fluoro-6,7-dihydro-5H-pyrido[3,2,1-ij]quinolin-3-one], the MIC was at most 0.063 mg/L. Take `O=C1CSc2ccc(N3C[C@@H](CNCC4Cc5c(F)ccc6ccc(=O)n4c56)OC3=O)cc2N1` (mixture of isomers) [Example 9, (RS)-9-fluoro-2-({[(R)-2-oxo-3-(3-oxo-3,4-dihydro-2H-benzo[1,4]thiazin-6-yl)-oxazolidin-5-ylmethyl]-amino}-methyl)-1,2-dihydro-pyrrolo[3,2,1-ij]quinolin-4-one]: the MIC was at most 0.063 mg/L.

As for `O=C1CSc2ccc(N3CC(CCNC[C@H]4Cc5c(F)ccc6ccc(=O)n4c56)OC3=O)cc2N1` (mixture of isomers) [Example 10, (R)-9-fluoro-2-({2-[(RS)-2-oxo-3-(3-oxo-3,4-dihydro-2H-benzo[1,4]thiazin-6-yl)-oxazolidin-5-yl]-ethylamino}-methyl)-1,2-dihydropyrrolo[3,2,1-ij]quinolin-4-one], the MIC was at most 0.063 mg/L. As for `O=C1CSc2ccc(N3C[C@@H](CNCC4Cn5c(=O)ccc6cccc(c65)O4)OC3=O)cc2N1` (mixture of isomers) [Example 11, (RS)-2-({[(R)-2-oxo-3-(3-oxo-3,4-dihydro-2H-benzo[1,4]thiazin-6-yl)-oxazolidin-5-ylmethyl]-amino}-methyl)-2,3-dihydro-1-oxa-3a-aza-phenalen-4-one], the figure is at most 0.063 mg/L; as for `O=C1CSc2ccc(N3C[C@@H](CNCC4Cn5c(=O)ccc6ccc(F)c(c65)O4)OC3=O)cc2N1` (mixture of isomers) [Example 12, (RS)-9-fluoro-2-({[(R)-2-oxo-3-(3-oxo-3,4-dihydro-2H-benzo[1,4]thiazin-6-yl)-oxazolidin-5-ylmethyl]-amino}-methyl)-2,3-dihydro-1-oxa-3a-aza-phenalen-4-one], at most 0.063 mg/L; as for `O=C1CSc2ccc(N3C[C@@H](CNCC4Cc5c(F)cnc6ccc(=O)n(c56)C4)OC3=O)cc2N1` (mixture of isomers) [Example 13, (RS)-3-fluoro-5-({[(R)-2-oxo-3-(3-oxo-3,4-dihydro-2H-benzo[1,4]thiazin-6-yl)-oxazolidin-5-ylmethyl]-amino}-methyl)-5,6-dihydro-4H-1,6a-diaza-phenalen-7-one], at most 0.063 mg/L. In turn, `O=C1COc2ccc(N3C[C@@H](CNCC4Cc5c(F)cnc6ccc(=O)n(c56)C4)OC3=O)cc2N1` (mixture of isomers) [Example 14, (RS)-3-fluoro-5-({[(R)-2-oxo-3-(3-oxo-3,4-dihydro-2H-benzo[1,4]oxazin-6-yl)-oxazolidin-5-ylmethyl]-amino}-methyl)-5,6-dihydro-4H-1,6a-diaza-phenalen-7-one] showed an MIC of at most 0.063 mg/L.

In turn, `O=C1CSc2ccc(N3C[C@@H](CCNCC4Cc5c(F)cnc6ccc(=O)n4c56)OC3=O)cc2N1` (mixture of isomers) [Example 15, (RS)-3-fluoro-5-({2-[(R)-2-oxo-3-(3-oxo-3,4-dihydro-2H-benzo[1,4]thiazin-6-yl)-oxazolidin-5-yl]-ethylamino}-methyl)-4,5-dihydropyrrolo[3,2,1-de][1,5]naphthyridin-7-one] returned an MIC of at most 0.063 mg/L.

`O=C1COc2ccc(N3C[C@@H](CCNCC4Cc5c(F)ccc6ccc(=O)n4c56)OC3=O)cc2N1` (mixture of isomers) [Example 21, (RS)-9-fluoro-2-({2-[(R)-2-oxo-3-(3-oxo-3,4-dihydro-2H-benzo[1,4]oxazin-6-yl)-oxazolidin-5-yl]-ethylamino}-methyl)-1,2-dihydropyrrolo[3,2,1-ij]quinolin-4-one] came in with an MIC of at most 0.063 mg/L. As for `O=C1COc2ccc(N3C[C@H](CCNCC4Cc5c(F)ccc6ccc(=O)n4c56)OC3=O)cc2N1` (mixture of isomers) [Example 22, (RS)-9-fluoro-2-({2-[(S)-2-oxo-3-(3-oxo-3,4-dihydro-2H-benzo[1,4]oxazin-6-yl)-oxazolidin-5-yl]-ethylamino}-methyl)-1,2-dihydropyrrolo[3,2,1-ij]quinolin-4-one], the figure is at most 0.063 mg/L; as for `O=C1COc2ccc(N3C[C@@H](CCNCC4Cc5c(F)ccc6c5N4C(=O)CC6)OC3=O)cc2N1` (mixture of isomers) [Example 23, (RS)-9-fluoro-2-({2-[(R)-2-oxo-3-(3-oxo-3,4-dihydro-2H-benzo[1,4]oxazin-6-yl)-oxazolidin-5-yl]-ethylamino}-methyl)-1,2,5,6-tetrahydropyrrolo[3,2,1-ij]quinolin-4-one], at most 0.063 mg/L; as for `O=C1CSc2ccc(N3C[C@@H](CCNCC4Cc5ccnc6ccc(=O)n4c56)OC3=O)cc2N1` (mixture of isomers) [Example 24, (RS)-5-({2-[(R)-2-oxo-3-(3-oxo-3,4-dihydro-2H-benzo[1,4]thiazin-6-yl)-oxazolidin-5-yl]-ethylamino}-methyl)-4,5-dihydro-pyrrolo[3,2,1-de][1,5]naphthyridin-7-one], 2 mg/L.

The molecule `O=C1COc2ccc(N3C[C@H](CCNCC4Cc5ccnc6ccc(=O)n4c56)OC3=O)cc2N1` (mixture of isomers) [Example 25, (RS)-5-({2-[(S)-2-oxo-3-(3-oxo-3,4-dihydro-2H-benzo[1,4]oxazin-6-yl)-oxazolidin-5-yl]-ethylamino}-methyl)-4,5-dihydro-pyrrolo[3,2,1-de][1,5]naphthyridin-7-one] had an MIC of 4 mg/L.

The values above are taken from patent publication US8349828B2, “Azatricyclic antibiotic compounds” (Actelion Pharmaceuticals Ltd., priority 2008, dated 2013).
